Biological target: T1, hGPR119 (Homo sapiens, UniProt Q8TDV5)
T1 construct: expressed in transfected cells; host or cells: CHO cells (CHO-hGPR119)
T1 sequence (Q8TDV5 1-335): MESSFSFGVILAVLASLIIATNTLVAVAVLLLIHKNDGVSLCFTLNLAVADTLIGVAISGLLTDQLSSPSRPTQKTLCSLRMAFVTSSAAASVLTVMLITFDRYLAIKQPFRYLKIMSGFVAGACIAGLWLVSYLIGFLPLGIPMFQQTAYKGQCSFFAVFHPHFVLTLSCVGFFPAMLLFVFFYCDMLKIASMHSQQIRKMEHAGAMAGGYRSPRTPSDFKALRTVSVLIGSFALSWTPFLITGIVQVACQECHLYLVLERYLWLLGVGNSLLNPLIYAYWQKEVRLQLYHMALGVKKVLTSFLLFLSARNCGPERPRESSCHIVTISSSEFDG
Assay: In vitro cyclic AMP assay (Cisbio HTRF) in CHO-hGPR119 cells
Format: cell-based
Settings: 1 h, cAMP, 1 μM, 60 min, read-out: Induction (% induction at 1 μM)
Procedure: cAMP measurements were done using Cisbio dynamic 2 HTRF kit according to the manufacturer's protocol. Briefly, CHO-hGPR119 cells were plated at a cell density of 5000 cells/well/5 μl into a white small volume 384 well plate. The final concentrations of IBMX and DMSO used were 1 mM and 0.5% respectively. Cells were treated with various concentrations of the test compound for 60 min at room temperature. Cells were lysed by buffer containing Anti-cAMP antibody and d2-cAMP reagents and incubated for 1 hour at room temperature. HTRF was measured at 337 nm excitation and emission wavelengths of 665 nm and 620 nm on a microplate reader (Flurostar, BMG Labtech). Graphpad prism software was utilized for EC50 determinations.

| activation at 1 µM [%] | SMILES |
| --- | --- |
| 22 | CS(=O)(=O)c1ccc(-c2cn3nc(N4CCC(c5nc(C6CC6)no5)CC4)sc3n2)cc1 [Compound 1045, 3-cyclopropyl-5-(1-(6-(4-(methylsulfonyl)phenyl)imidazo[2,1-b][1,3,4]thiadiazol-2-yl)piperidin-4-yl)-1,2,4-oxadiazole] |
| 11 | CN(c1nn2cc(-c3ccc(S(C)(=O)=O)cc3)nc2s1)C1CCN(C(N)=O)CC1 [Compound 1025, 4-(methyl(6-(4-(methylsulfonyl)phenyl)imidazo[2,1-b][1,3,4]thiadiazol-2-yl)amino)piperidine-1-carboxamide] |
| 87 | CC(C)c1noc(N2CCC(C(C)Oc3nn4cc(-c5cnc(Cl)cn5)nc4s3)CC2)n1 (stereo not drawn) [Compound 1079, 2-(1-(1-(3-isopropyl-1,2,4-oxadiazol-5-yl)piperidin-4-yl)ethoxy)-6-(5-chloropyrazin-2-yl)imidazo[2,1-b][1,3,4]thiadiazole] |
| 14 | CC(C)c1noc(N2CCC(C(C)Oc3nc(-c4ccc(S(C)(=O)=O)cc4)ns3)CC2)n1 (stereo not drawn) [Compound 1115, 4-(1-(3-(4-(methylsulfonyl)phenyl)-1,2,4-thiadiazol-5-yloxy)ethyl)-1-(3-isopropyl-1,2,4-oxadiazol-5-yl)piperidine] |
| 4 | CC(C)c1noc(N2CCC(N(C)c3nc(-c4ccc(S(C)(=O)=O)nc4)ns3)CC2)n1 [Compound 1127, 1-(3-isopropyl-1,2,4-oxadiazol-5-yl)-N-methyl-N-(3-(6-(methylsulfonyl)pyridin-3-yl)-1,2,4-thiadiazol-5-yl)piperidin-4-amine] |
| 6 | CCc1cnc(N2CCC(c3nsnc3-c3ccc(S(C)(=O)=O)cc3)CC2)nc1 [Compound 1004, 3-(1-(5-ethylpyrimidin-2-yl)piperidin-4-yl)-4-(4-(methylsulfonyl)phenyl)-1,2,5-thiadiazole] |
| 71 | CC(Oc1nn2cc(-c3ccc(S(C)(=O)=O)cc3F)nc2s1)C1CCN(C(=O)OC2(C)CC2)CC1 (stereo not drawn) [Compound 1110, 1-methylcyclopropyl 4-(1-(6-(2-fluoro-4-(methylsulfonyl)phenyl)imidazo[2,1-b][1,3,4]thiadiazol-2-yloxy)ethyl)piperidine-1-carboxylate] |
| 20 | CC(C)c1noc(N2CCC(Oc3nn4cc(-c5ccc(S(C)(=O)=O)cc5)nc4s3)CC2)n1 [Compound 1018, 3-isopropyl-5-(4-((6-(4-(methylsulfonyl)phenyl)imidazo[2,1-b][1,3,4]thiadiazol-2-yl)oxy)piperidin-1-yl)-1,2,4-oxadiazole] |
| 1 | CS(=O)(=O)c1ccc(-c2cn3nc(C4CCN(S(C)(=O)=O)CC4)sc3n2)cc1 [Compound 1031, 6-(4-(methylsulfonyl)phenyl)-2-(1-(methylsulfonyl)piperidin-4-yl)imidazo[2,1-b][1,3,4]thiadiazole] |
| 71 | Cc1cc(S(C)(=O)=O)ccc1-c1cn2nc(O[C@@H](C)C3CCN(c4nc(C(C)C)no4)CC3)sc2n1 [Compound 1112, 2-((S)-1-(1-(3-isopropyl-1,2,4-oxadiazol-5-yl)piperidin-4-yl)ethoxy)-6-(2-methyl-4-(methylsulfonyl)phenyl)imidazo[2,1-b][1,3,4]thiadiazole] |
| 12 | CC(C)c1noc(C2CCN(c3nn4c(Cl)c(-c5ccncc5)nc4s3)CC2)n1 [Compound 1052, 5-(1-(5-chloro-6-(pyridin-4-yl)imidazo[2,1-b][1,3,4]thiadiazol-2-yl)piperidin-4-yl)-3-isopropyl-1,2,4-oxadiazole] |
| 2 | CC(C)c1noc(N2CCC(Oc3nn4cc(COc5ccc(S(C)(=O)=O)cc5)nc4s3)CC2)n1 [Compound 1042, 3-isopropyl-5-(4-((6-((4-(methylsulfonyl)phenoxy)methyl)imidazo[2,1-b][1,3,4]thiadiazol-2-yl)oxy)piperidin-1-yl)-1,2,4-oxadiazole] |
